# Results taken from paper PMC8004985, “Affinity Purification of Angiotensin Converting Enzyme Inhibitory Peptides from Wakame (Undaria Pinnatifida) Using Immobilized ACE on Magnetic Metal Organic Frameworks” (Marine Drugs, 2021).
# Read-outs that look alike come from different tables or passages of the source. Residues, ends and D or L forms follow the SMILES beside them.
# What was measured:
# [1] = biological target: T1, ACE (Oryctolagus cuniculus, UniProt P12822); experiment: Inhibition pattern / kinetics of ACE in presence of KNFL; format: biochemical, rabbit; conditions: for Vmax: nonlinear regression, control 55.492
# T1 construct: Angiotensin I-converting enzyme (ACE, EC3.4.15.1) from rabbit lung; purchased Sigma-Aldrich Co. (St. Louis, MO, USA); host or cells: rabbit lung (tissue-derived)
# T1 sequence (P12822 34-1310): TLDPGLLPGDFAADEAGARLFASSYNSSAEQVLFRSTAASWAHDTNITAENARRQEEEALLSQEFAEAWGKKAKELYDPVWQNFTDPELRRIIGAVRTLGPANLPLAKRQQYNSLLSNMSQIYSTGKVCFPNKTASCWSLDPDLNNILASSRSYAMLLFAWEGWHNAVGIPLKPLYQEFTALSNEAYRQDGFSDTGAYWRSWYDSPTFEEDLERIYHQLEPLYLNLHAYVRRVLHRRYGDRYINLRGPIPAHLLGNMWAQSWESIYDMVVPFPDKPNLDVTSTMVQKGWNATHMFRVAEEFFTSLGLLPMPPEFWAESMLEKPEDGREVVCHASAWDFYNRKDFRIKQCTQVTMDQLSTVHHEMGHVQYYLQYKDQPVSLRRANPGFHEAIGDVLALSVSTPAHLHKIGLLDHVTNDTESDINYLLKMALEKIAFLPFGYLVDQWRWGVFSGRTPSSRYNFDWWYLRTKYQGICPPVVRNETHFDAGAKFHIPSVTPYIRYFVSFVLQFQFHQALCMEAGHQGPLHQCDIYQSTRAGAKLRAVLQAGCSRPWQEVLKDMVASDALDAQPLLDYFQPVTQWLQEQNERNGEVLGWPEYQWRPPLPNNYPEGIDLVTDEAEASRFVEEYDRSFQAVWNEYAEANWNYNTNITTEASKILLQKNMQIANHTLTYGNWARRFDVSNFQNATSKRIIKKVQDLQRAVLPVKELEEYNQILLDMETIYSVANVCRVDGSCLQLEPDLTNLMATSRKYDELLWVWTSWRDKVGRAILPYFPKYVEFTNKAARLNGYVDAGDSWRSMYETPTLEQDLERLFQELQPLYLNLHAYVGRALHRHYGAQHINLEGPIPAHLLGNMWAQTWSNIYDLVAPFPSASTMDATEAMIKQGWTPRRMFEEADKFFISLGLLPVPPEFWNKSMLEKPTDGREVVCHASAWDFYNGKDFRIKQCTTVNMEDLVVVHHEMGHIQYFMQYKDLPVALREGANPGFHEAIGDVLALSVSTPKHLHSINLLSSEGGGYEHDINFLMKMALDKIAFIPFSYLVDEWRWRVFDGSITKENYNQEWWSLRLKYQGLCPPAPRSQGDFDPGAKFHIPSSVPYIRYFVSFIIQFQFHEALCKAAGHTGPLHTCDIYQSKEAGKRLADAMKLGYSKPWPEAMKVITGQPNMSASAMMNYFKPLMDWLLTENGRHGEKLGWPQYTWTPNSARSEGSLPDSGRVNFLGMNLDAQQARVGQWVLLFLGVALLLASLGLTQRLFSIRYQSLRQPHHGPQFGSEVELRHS
# Source text: ACE inhibitor peptides have been reported with competitive, noncompetitive, uncompetitive, and mixed modes of interaction. The kinetic constants were estimated by using nonlinear regression analysis (SPSS, version 26.0, Inc., Chicago, IL, USA) and the nonlinear fitting plots were shown in Figure 8. […] Mixed-type inhibitors interact with the non-catalytic site of the enzyme and combine with the enzyme to produce an ACE–HHL(Hip-His-Leu) peptide complex which might leads to conformational changes and a decrease in substrate affinity at the active site resulting in loss of activity. A great many of ACE inhibitor peptides acted in a mixed-type manner. For example, the MAINPSKENLCSTFCK peptide produced from casein hydrolysates, and EVSQGRP, VSRHFASYAN and SAAVGSP generated from Stichopus horrens.
# Angiotensin I-converting enzyme (ACE, EC3.4.15.1) from rabbit lung, HHL (Hippuryl-L-histidyl-L-leucine), were obtained from Sigma-Aldrich Co. (St. Louis, MO, USA). The ACE inhibitor KNFL (Lys-Asn-Phe-Leu) was supplied by GL Biochem Ltd. (Shanghai, China). Iron chloride hexahydrate (FeCl3·6H2O), ethylene glycol (EG), diethylene glycol (DEG), sodium acetate anhydrous (NaAc), and zinc acetate dehydrate Zn(CH3COO)2·2H2O were all obtained from Sinopharm Chemical Reagent Co., Ltd. (Shanghai, China). Polyacrylic acid (PAA), imidazolate-2-carboxyaldehyde (2-ICA, 98 %), sodium acrylate (NaAA) were purchased from Macklin Biochemical Co., Ltd (Shanghai, China). The other chemicals and reagents used were of AR grade and used without further purification.
# ACE activity was evaluated by measuring the amount of hippuric acid (HA). The assay mixture (0.3 mL) consisted of 130 µL BBS buffer pH 8.3 ([…], containing 0.3 M NaCl), 40 µL HHL (5 mM), and different amounts of the free and immobilized ACE. Incubation was carried out at 37 °C for 10 min and was terminated by addition of HCl (0.1 mL, 1 M). The HA content of the mixture was determined by RP-HPLC (Agilent 1260) at 228 nm with a DAD detector. One unit of ACE enzyme activity (U) was defined as the amount of enzyme catalyzing HHL to generate 1 µM of HA per minute under the experimental conditions.
# [2] = synthetic ACE inhibitors in hypertension treatment; ref [1]; cited from earlier work
# Source text: As a zinc-dependent carboxypeptidase, angiotensin-I-converting enzyme (ACE EC 3.4.15.1) is prolific in biological tissues and blood, and plays an important role in modulating blood pressure. ACE cannot only convert angiotensin I to angiotensin II (a potent vasoconstrictor), but it can also degrade the vasodilator bradykinin [2]. ACE inhibitors are, thus, a class of drugs frequently used in the treatment of hypertension. Synthetic ACE inhibitors, including captopril, benazepril, enalapril, and perindopril are associated with various side effects, such as cough, taste disturbances, aller ...
# [3] = test system: ACE; conditions: cited from earlier work
# Source text: ACE inhibitor peptides have been reported with competitive, noncompetitive, uncompetitive, and mixed modes of interaction. The kinetic constants were estimated by using nonlinear regression analysis (SPSS, version 26.0, Inc., Chicago, IL, USA) and the nonlinear fitting plots were shown in Figure 8. […] Mixed-type inhibitors interact with the non-catalytic site of the e ...
# [4] = in the presence of KNFL (192 and 384 µM)
# [5] = generated from Stichopus horrens, ref [51]
Compound,side effects [2],"inhibition mode [3, 5]",further results
"CC(C)C[C@H](NC(=O)[C@H](Cc1ccccc1)NC(=O)[C@H](CC(N)=O)NC(=O)[C@@H](N)CCCCN)C(=O)O [KNFL, Lys-Asn-Phe-Leu] (H-KNFL-OH; N-terminus and C-terminus assumed)",–,–,"Vmax ([1]; KNFL at 192 µM): 45.958 µM/L·min; Vmax ([1]; KNFL at 384 µM): 24.105 µM/L·min; inhibition pattern ([1]; b33/b37: nonlinear regression, b1: Lineweaver–Burk analysis): mixed-type inhibition; effect on Km [1, 4]: increased; effect on Vmax [1, 4]: decreased in a dose-dependent pattern"
CCOC(=O)[C@H](CCc1ccccc1)N[C@H]1CCc2ccccc2N(CC(=O)O)C1=O [benazepril],"cough, taste disturbances, allergic reactions, and skin rashes",–,–
C[C@H](CS)C(=O)N1CCC[C@H]1C(=O)O [captopril],"cough, taste disturbances, allergic reactions, and skin rashes",–,–
CCOC(=O)[C@H](CCc1ccccc1)N[C@@H](C)C(=O)N1CCC[C@H]1C(=O)O [enalapril],"cough, taste disturbances, allergic reactions, and skin rashes",–,–
CCC[C@H](N[C@@H](C)C(=O)N1[C@H](C(=O)O)C[C@@H]2CCCC[C@@H]21)C(=O)OCC [perindopril],"cough, taste disturbances, allergic reactions, and skin rashes",–,–
EVSQGRP [peptide generated from Stichopus horrens],–,mixed-type,–
MAINPSKENLCSTFCK [peptide produced from casein hydrolysates],–,–,"inhibition mode ([3]; produced from casein hydrolysates, ref [50]): mixed-type"
SAAVGSP [peptide generated from Stichopus horrens],–,mixed-type,–
VSRHFASYAN [peptide generated from Stichopus horrens],–,mixed-type,–
